The results in this text go back to US20250163054A1, “SUBSTITUTED BICYCLIC HETEROARYL COMPOUNDS USEFUL AS INHIBITORS OF TLR9” (Bristol-Myers Squibb Company, priority 2022, published 2025).

In general, IC50 refers to the point on the concentration scale where inhibition reaches its midpoint. The low end stands for greater potency, the high end for weaker potency.

Format in all cases: cell-based
Assay [1] addresses T1, human TLR9 (Homo sapiens, UniProt Q9NR96).
T1 construct: host or cells: HEK-Blue cells (HEK293-derived reporter line)
T1 sequence (Q9NR96 26-1032): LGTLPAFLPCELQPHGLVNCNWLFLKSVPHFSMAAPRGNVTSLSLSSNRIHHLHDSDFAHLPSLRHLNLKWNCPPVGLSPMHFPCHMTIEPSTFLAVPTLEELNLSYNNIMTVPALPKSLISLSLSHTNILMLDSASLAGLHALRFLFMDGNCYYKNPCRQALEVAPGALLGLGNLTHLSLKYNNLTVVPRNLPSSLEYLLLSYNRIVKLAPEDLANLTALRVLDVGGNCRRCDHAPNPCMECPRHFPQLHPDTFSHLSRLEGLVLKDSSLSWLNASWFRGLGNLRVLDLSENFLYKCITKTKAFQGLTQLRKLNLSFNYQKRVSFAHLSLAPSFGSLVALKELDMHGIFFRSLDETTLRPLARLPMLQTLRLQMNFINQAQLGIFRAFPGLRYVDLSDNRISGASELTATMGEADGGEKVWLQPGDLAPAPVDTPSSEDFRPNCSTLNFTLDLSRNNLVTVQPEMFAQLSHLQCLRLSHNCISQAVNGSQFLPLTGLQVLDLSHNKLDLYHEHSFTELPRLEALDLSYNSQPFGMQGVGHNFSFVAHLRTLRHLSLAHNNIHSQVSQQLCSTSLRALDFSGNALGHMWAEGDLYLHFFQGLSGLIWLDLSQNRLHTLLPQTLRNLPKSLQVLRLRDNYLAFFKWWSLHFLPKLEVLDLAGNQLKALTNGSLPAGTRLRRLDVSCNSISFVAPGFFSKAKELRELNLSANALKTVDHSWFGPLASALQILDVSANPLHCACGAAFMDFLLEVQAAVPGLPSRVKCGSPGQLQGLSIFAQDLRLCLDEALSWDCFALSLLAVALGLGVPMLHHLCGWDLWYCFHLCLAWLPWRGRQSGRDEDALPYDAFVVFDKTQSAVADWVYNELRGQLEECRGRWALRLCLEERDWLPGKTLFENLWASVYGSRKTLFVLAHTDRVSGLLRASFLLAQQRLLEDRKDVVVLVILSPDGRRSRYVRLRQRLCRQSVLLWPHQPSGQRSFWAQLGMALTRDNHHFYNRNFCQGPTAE
In words: TLR7/8/9 Inhibition Reporter Assays (TLR9). Particulars: HEK-Blue cells overexpressing human TLR9, SEAP reporter, stimulated with TLR9 ligand ODN2006. A digest of the protocol:
(§1)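 HEK-Blue cells overexpressing human TLR7, TLR8 or TLR9 with NF-κB/AP-1-driven SEAP reporter, pre-treated 60 min with compound ([…]). Stimulated with […] (TLR7), […] (TLR8) or ODN2006 200 nM (TLR9), then 22 h at 37° C; SEAP measured, % inhibition relative to agonist-plus-DMSO and known-inhibitor wells.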
Background: In a reporter assay the amount or activity of a reporter protein is the signal.

In assay [2] the target is T2, human TLR7 (Homo sapiens, UniProt Q9NYK1).
T2 construct: host or cells: HEK-Blue cells (HEK293-derived reporter line)
T2 sequence (Q9NYK1 27-1049): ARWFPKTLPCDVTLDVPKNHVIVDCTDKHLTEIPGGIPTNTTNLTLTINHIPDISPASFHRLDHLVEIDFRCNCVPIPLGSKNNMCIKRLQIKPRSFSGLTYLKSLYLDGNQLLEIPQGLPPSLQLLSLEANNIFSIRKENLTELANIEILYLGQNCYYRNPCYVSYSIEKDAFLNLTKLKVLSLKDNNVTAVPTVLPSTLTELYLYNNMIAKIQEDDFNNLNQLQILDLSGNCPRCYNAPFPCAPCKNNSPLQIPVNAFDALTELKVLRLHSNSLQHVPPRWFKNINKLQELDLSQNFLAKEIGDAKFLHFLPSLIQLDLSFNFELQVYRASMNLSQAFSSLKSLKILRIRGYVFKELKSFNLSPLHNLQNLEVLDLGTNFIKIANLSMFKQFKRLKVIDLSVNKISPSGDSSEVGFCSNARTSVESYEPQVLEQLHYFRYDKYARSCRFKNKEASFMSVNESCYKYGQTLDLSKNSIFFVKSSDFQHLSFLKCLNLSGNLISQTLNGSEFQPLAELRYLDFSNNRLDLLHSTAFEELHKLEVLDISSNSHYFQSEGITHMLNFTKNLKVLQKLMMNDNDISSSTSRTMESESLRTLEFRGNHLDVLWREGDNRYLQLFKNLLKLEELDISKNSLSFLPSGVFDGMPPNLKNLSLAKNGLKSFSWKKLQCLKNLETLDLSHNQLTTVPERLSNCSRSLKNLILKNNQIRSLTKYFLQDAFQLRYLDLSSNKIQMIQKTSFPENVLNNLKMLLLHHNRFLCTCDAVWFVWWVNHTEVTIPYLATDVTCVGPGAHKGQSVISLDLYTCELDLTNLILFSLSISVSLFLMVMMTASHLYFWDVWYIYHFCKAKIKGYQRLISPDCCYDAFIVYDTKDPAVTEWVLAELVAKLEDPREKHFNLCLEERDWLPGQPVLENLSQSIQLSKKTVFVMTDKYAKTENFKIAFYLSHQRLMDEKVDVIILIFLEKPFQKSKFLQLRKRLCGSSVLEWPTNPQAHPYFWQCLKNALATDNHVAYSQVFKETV
In words: TLR7/8/9 Inhibition Reporter Assays (TLR7). Conditions: HEK-Blue cells overexpressing human TLR7, SEAP reporter, stimulated with TLR7 ligand gardiquimod. The gist of the method: as §1

Assay [3] deals with T3, human TLR8 (Homo sapiens, UniProt Q9NR97).
T3 construct: host or cells: HEK-Blue cells (HEK293-derived reporter line)
T3 sequence (Q9NR97 27-1041): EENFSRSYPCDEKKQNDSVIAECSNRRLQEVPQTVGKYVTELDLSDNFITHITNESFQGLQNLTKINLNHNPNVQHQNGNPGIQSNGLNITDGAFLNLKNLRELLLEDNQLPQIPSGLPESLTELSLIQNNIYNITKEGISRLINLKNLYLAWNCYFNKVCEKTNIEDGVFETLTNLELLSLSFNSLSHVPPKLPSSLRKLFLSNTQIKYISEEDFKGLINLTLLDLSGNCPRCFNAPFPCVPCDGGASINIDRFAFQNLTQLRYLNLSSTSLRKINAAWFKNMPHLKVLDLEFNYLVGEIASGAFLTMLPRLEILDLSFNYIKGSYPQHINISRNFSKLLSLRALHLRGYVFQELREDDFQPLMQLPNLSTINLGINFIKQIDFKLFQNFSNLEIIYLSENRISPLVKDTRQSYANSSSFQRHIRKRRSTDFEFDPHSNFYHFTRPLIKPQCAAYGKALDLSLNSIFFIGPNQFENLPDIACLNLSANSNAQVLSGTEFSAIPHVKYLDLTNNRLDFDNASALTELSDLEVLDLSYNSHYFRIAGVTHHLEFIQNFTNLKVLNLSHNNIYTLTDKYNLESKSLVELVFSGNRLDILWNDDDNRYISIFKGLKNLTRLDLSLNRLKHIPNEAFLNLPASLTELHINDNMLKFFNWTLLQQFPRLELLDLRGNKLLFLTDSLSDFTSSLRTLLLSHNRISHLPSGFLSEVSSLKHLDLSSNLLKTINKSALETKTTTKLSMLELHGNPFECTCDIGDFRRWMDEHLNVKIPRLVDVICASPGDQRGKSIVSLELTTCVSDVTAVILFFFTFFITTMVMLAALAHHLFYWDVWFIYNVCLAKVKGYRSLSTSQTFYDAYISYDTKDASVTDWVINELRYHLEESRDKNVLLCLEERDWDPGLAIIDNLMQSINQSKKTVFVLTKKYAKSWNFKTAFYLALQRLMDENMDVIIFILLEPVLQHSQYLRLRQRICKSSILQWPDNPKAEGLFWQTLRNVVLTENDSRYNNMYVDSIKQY
Put plainly: TLR7/8/9 Inhibition Reporter Assays (TLR8). Conditions: HEK-Blue cells overexpressing human TLR8, SEAP reporter, stimulated with TLR8 ligand R848. The gist of the method:
as §1

Structures are written as SMILES.

On to `Cc1nc(-c2ccc(N3CCN(CCCN4CCOCC4)CC3)cc2)cc2c1nc(-c1ccc(S(C)(=O)=O)cc1)n2C` [Example 52, 4-(3-(4-(4-(1,4-dimethyl-2-(4-(methylsulfonyl)phenyl)-1H-imidazo[4,5-c]pyridin-6-yl)phenyl)piperazin-1-yl)propyl)morpholine], for which the results for the IC50 in assay [1], in assay [2] and in assay [3] were 28 nM, 1700 nM and 2600 nM, respectively.
For `CC(C)N1CC2(CN(c3ccc(-c4cc5c(cn4)nc(-c4ccc(S(C)(=O)=O)cc4)n5C4CC4)cc3)C2)C1` [Example 89, 1-cyclopropyl-6-(4-(6-isopropyl-2,6-diazaspiro[3.3]heptan-2-yl)phenyl)-2-(4-(methylsulfonyl)phenyl)-1H-imidazo[4,5-c]pyridine] the same measures were 420 nM, 1900 nM and 4500 nM.
In the same order, the values of `COc1ccc(-c2nc3c(C)nc(-c4ccc(N5CCN(C6CCC6)CC5)cc4)cc3n2C)cc1OC` [Example 19, 6-(4-(4-cyclobutylpiperazin-1-yl)phenyl)-2-(3,4-dimethoxyphenyl)-1,4-dimethyl-1H-imidazo[4,5-c]pyridine] are 820 nM, 850 nM and greater than 50000 nM.
Turning to `Cc1nc(-c2ccc(N3CCN(CC(C)(C)O)CC3)cc2)cc2c1nc(-c1ccc(S(C)(=O)=O)cc1)n2C` [Example 8, 1-(4-(4-(1,4-dimethyl-2-(4-(methylsulfonyl)phenyl)-1H-imidazo[4,5-c]pyridin-6-yl)phenyl)piperazin-1-yl)-2-methylpropan-2-ol], the IC50 in assay [1] is 890 nM; in assay [2], 6400 nM; in assay [3], 13000 nM.
For `COc1ccc(-c2nc3c(C)nc(-c4ccc(N5CC6(C5)CN(C5COC5)C6)cc4)cc3n2C)cc1OC` [Example 102, 2-(3,4-dimethoxyphenyl)-1,4-dimethyl-6-(4-(6-(oxetan-3-yl)-2,6-diazaspiro[3.3]heptan-2-yl)phenyl)-1H-imidazo[4,5-c]pyridine] the same measures were 320 nM, 9100 nM and greater than 50000 nM.
As for `CC(C)N1CCC(N2CCC(c3cc4c(cn3)nc(-c3ccc(S(C)(=O)=O)cc3)n4C)CC2)CC1` [Example 30, 6-(1′-isopropyl-[1,4′-bipiperidin]-4-yl)-1-methyl-2-(4-(methylsulfonyl)phenyl)-1H-imidazo[4,5-c]pyridine], the concentration for half-maximal inhibition (IC50) in assay [1] was 1400 nM; in assay [2] it was greater than 25000 nM; in assay [3], greater than 25000 nM.
As for `Cc1nc(-c2ccc(N3CCN(C4CCC4)CC3)cc2)cc2c1nc(-c1ccc(S(C)(=O)=O)cc1)n2C` [Example 21, 6-(4-(4-cyclobutylpiperazin-1-yl)phenyl)-1,4-dimethyl-2-(4-(methylsulfonyl)phenyl)-1H-imidazo[4,5-c]pyridine], the IC50 amounted to 450 nM in assay [1], 3000 nM in assay [2] and 3300 nM in assay [3].
For the molecule `COc1ccc(-c2nc3c(C)nc(-c4ccc(N5CCN(CC(C)C)CC5)cc4)cc3n2C)cc1OC` [Example 17, 2-(3,4-dimethoxyphenyl)-6-(4-(4-isobutylpiperazin-1-yl)phenyl)-1,4-dimethyl-1H-imidazo[4,5-c]pyridine], the IC50 in assay [1] was 460 nM; in assay [2], 4400 nM; in assay [3], 12000 nM.
In the same order, the values of `Cc1nc(-c2ccc(C3CCN(C(C)C)CC3)cc2)cc2c1nc(-c1ccc(S(C)(=O)=O)cc1)n2C` [Example 2, 6-(4-(1-isopropylpiperidin-4-yl)phenyl)-1,4-dimethyl-2-(4-(methylsulfonyl)phenyl)-1H-imidazo[4,5-c]pyridine] are 300 nM, 12000 nM and 36000 nM.
For `CC(C)N1CCN(c2ccc(-c3cc4c(cn3)nc(-c3ccc(S(C)(=O)=O)cc3)n4C)cc2)CC1` [Example 70, 6-(4-(4-isopropylpiperazin-1-yl)phenyl)-1-methyl-2-(4-(methylsulfonyl)phenyl)-1H-imidazo[4,5-c]pyridine] the same measures were 230 nM, 5300 nM and 440 nM.
For `Cc1nc(-c2ccc(N3CC4(CN(CC(C)(C)O)C4)C3)cc2)cc2c1nc(-c1ccc(S(C)(=O)=O)cc1)n2C` [Example 97, 1-(6-(4-(1,4-dimethyl-2-(4-(methylsulfonyl)phenyl)-1H-imidazo[4,5-c]pyridin-6-yl)phenyl)-2,6-diazaspiro[3.3]heptan-2-yl)-2-methylpropan-2-ol] the same measures were 78 nM, 6200 nM and 6800 nM.
Regarding `Cc1nc(-c2ccc(N3CC4(C3)CN(C(C)C)C4)cc2)cc2c1nc(-c1ccc(S(C)(=O)=O)cc1)n2C` [Example 78, 6-(4-(6-isopropyl-2,6-diazaspiro[3.3]heptan-2-yl)phenyl)-1,4-dimethyl-2-(4-(methylsulfonyl)phenyl)-1H-imidazo[4,5-c]pyridine], the IC50 in assay [1] was found to be 130 nM; in assay [2], 7800 nM; in assay [3], 6300 nM.
